Laboratory results reported in US7482344B2, “Tricyclic steroid hormone nuclear receptor modulators” (Eli Lilly and Company, priority 2003, dated 2009).

Biological target: T1, human GR (glucocorticoid receptor) (Homo sapiens, UniProt P04150)
T1 construct: expressed in transfected cells; host or cells: 293 cells
T1 sequence (P04150 1-777): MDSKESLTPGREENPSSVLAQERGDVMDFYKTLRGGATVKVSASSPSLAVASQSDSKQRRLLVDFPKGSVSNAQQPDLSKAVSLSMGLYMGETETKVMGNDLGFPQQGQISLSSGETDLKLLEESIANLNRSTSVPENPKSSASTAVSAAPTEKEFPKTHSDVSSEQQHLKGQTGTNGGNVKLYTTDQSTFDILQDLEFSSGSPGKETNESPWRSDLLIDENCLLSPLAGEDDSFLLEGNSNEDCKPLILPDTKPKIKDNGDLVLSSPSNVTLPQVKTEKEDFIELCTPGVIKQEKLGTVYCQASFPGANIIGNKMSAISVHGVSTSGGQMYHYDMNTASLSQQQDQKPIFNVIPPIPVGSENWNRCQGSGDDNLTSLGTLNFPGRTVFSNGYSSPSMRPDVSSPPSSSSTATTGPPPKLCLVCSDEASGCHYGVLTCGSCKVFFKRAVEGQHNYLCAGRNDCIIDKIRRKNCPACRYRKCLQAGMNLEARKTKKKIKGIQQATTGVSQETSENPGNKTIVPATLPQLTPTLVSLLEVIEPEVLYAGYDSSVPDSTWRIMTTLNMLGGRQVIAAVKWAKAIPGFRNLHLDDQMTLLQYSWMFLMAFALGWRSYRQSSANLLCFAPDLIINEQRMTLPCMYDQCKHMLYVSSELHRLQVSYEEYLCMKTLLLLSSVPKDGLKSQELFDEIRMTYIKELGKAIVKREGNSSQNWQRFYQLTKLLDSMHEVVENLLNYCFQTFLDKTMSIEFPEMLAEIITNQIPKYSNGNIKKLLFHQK
Experiment: Alternative Binding Assay Protocol (Method 2), 293-GR lysate, 3H-dexamethasone competition
Conditions: 0.3 nM 3H-dexamethasone
Procedure: Alternative Binding Assay Protocol for MR, GR, AR, and PR (Method 2):
Cell lysates from 293 cells overexpressing human GR (glucocorticoid receptor), AR (androgen receptor), MR (mineralocorticoid receptor) or PR (progesterone receptor) are used for competition binding assays to determine Ki values for test compounds. Briefly, competition binding assays are run in a buffer containing 20 mM Hepes, pH 7.6, 0.2 mM EDTA, 75 mM NaCl, 1.5 mM MgCl2, 20% glycerol, 20 mM sodium molybdate, 0.2 mM DTT, 20 ug/ml aprotinin and 20 ug/ml leupeptin, using either 0.3 nM ^3H-dexamethasone for GR binding, 0.36 nM ^3H-methyltrienolone for AR binding, 0.25 nM ^3H-aldosterone for MR binding, or 0.29 nM ^3H-methyltrienolone for PR binding, and either 20 ug 293-GR lysate, 22 ug 293-AR lysate, 20 ug 293-MR lysate or 40 ug 293-PR lysate per well. Competing compounds are added various concentrations in half-log increments. Non-specific binding is determined in the presence of 500 nM dexamethasone for GR binding, 500 nM aldosterone for MR binding, or 500 nM methyltrienolone for AR and PR binding. The binding reaction (140 μl) is incubated for overnight at 4° C. then 70 μl of cold charcoal-dextran buffer (containing per 50 ml of assay buffer, 0.75 g of charcoal and 0.25 g of dextran) is added to each reaction. Plates are mixed 8 minutes on an orbital shaker at 4° C. Plates are then centrifuged at 3,000 rpm at 4° C. for 10 minutes. An aliquot of 120 μl of the mix is transferred to another 96-well plate and 175 μl of Wallac Optiphase “Hisafe 3” scintillation fluid is added to each well. Plates are sealed and shaken vigorously on an orbital shaker. After an incubation of 2 hrs, plates are read in a Wallac Microbeta counter. The data is used to calculate an IC50 and % Inhibition at 10 μM. The Kd for ^3H-dexamethasone for GR binding, ^3H-methyltrienolone for AR binding, ^3H-aldosterone for MR binding, or ^3H-methyltrienolone for PR binding, is determined by saturation binding. The IC50 values for compounds are converted to Ki using Cheng-Prusoff equation and the Kd determined by saturation binding assay.

| Ki [nM] | SMILES |
| --- | --- |
| < 500 | CS(=O)(=O)Nc1cccc(C=C2c3ccccc3Sc3ccccc32)c1 [Example 8] |
| < 500 | O=c1[nH]c2cc(C=C3c4ccccc4Sc4ccccc43)ccc2s1 [Example 12] |
| < 500 | CC(=C1c2ccccc2Sc2ccccc21)c1cccc(NS(C)(=O)=O)c1 [Example 4, 9-[1-(3-methylsulfonoylaminophenyl)ethylene] thioxanthine] |
| < 500 | CC(=C1c2ccccc2Sc2ccccc21)c1cccc(N)c1 [Example 6] |
| < 10000 | O=c1[nH]c2ccc(C=C3c4ccccc4Sc4ccccc43)cc2[nH]1 [Example 10] |
| < 1000 | O=c1[nH]c2cc(C=C3c4ccccc4Sc4ccccc43)ccc2n1CCN1CCOCC1 [Example 13] |
| < 500 | Oc1ccccc1C=C1c2ccccc2Sc2ccccc21 [Example 15] |
| < 1000 | O=c1[nH]c2ccc(C=C3c4ccc(F)cc4Sc4cc(F)ccc43)cc2[nH]1 [Example 5, 5-(3,6-Difluoro-thioxanthen-9-ylidenemethyl)-1,3-dihydro-benzoimidazol-2-one] |
| < 1000 | Nc1cccc(C=C2c3ccccc3Sc3ccccc32)c1 [Example 9] |
| < 500 | O=c1[nH]c2cc(C=C3c4ccccc4Sc4ccccc43)ccc2o1 [Example 11] |
| < 10000 | CN1CCN(CCn2c(=O)[nH]c3cc(C=C4c5ccccc5Sc5ccccc54)ccc32)CC1 [Example 14] |
